Like-named read-outs stand apart in the source and are kept apart here. Positions of bridges follow the written chain, without caps; N, C: chain ends. Non-standard residues stand in square brackets, D forms with d. Residues, ends and D or L forms follow the SMILES beside them. No end group written: not given here. *: point of attachment. Lauroyl = CCCCCCCCCCCC(=O)*; Decanoyl = CCCCCCCCCC(=O)*; Nonanoyl = CCCCCCCCC(=O)*; X1 = CC[C@H](C)CCCCC(=O)*; Nle = CCCC[C@H](N)C(=O)O; Dab = NCC[C@H](N)C(=O)O; Hexanoyl = CCCCCC(=O)*
Assays:
[1] = tested on: fresh rabbit erythrocytes; assay: Hemolysis assay; format: cell-based; details: 335 μM lipopeptide, 1 h at 37 °C, 10 mM Tris 80 mM NaCl pH 7.4, absorbance 540 nm, average of three independent experiments
Experimental: Hemolytic activity was evaluated on fresh rabbit erythrocytes collected in EDTA collection tubes, as previously described. Briefly, an erythrocite suspension in buffer (10 mM Tris, 80 mM NaCl pH 7.4) was obtained by centrifugation (three times, 10 min at 4000 rpm) and adjusted at an optical density of 1 at 540 nm. Aliquots of 200 µL were incubated for 1 h at 37 °C with the different lipopeptides in 96-well polypropylene microtiter plates and centrifuged (15 min, 5000 rpm). Lipopetide-induced hemolysis was determined by measuring the absorbance at 540 nm of released hemoglobin (Asample) in the supernatant. Each determination was done by triplicate, and as negative and positive controls, erythrocytes in buffer (A0%) and in distilled water (A100%) were employed, respectively. Hemolysis was calculated according the following equation: % hemolysis = 100 · (Asample − A0%/A100% − A0%).

[2] = Kinetics of insertion into monolayers; format: binding; details: 25 min after injection, 10 mM Tris pH 7.4, 25 °C, average of three independent experiments (error < 10%); for Increase in surface pressure (Δπ), POPE/POPG: POPE/POPG 6:4, initial pressure 32 mN·m^−1, peptide 0.48 μM; for Increase in surface pressure (Δπ), POPC / Increase in surface pressure (Δπ), POPG: initial pressure 32 mN·m^−1, peptide 0.48 μM
Experimental: (§1) Monolayer studies were performed at room temperature (25 °C) on a monolayer system (NIMA Technology, Coventry, UK) by using a cylindrical PTFE (Teflon®, Wilmington, DE, USA) trough (5 cm diameter) containing a continuously stirred aqueous phase (12 mL, 10 mM Tris pH 7.4) and a Wilhelmy platinum plate connected to an electrobalance. The system was enclosed in a Plexiglass box to reduce surface contamination, and before each run, the plate and the trough were cleaned with hot water at >70 °C to avoid carryover of lipid or peptide. Monolayers of POPG, POPE/POPG (6:4), POPC, or LPS were formed by applying small drops of the lipid stock solutions in CHCl3 on the aqueous subphase with a microsyringe (Hamilton Co., Reno, NV, USA) to achieve a surface pressure of 32 mN·m^−1. After 10 min, allowing for solvent evaporation, a known aliquot of peptide was added without disturbance of the monolayer via an inlet port, and the surface pressure was continuously monitored.

[3] = tested on: Staphylococcus aureus ATTC 25923; format: cell-based
Experimental: (§2) The minimal peptide concentration required to prevent the growth of a given test organism was determined after incubation overnight at 37 °C and was defined as the MIC. Activity was determined in representative bacteria, Escherichia coli ATTC 25922, Pseudomonas aeruginosa ATTC 27853, and Staphylococcus aureus ATTC 25923, using the broth microdilution method. Serial-two-fold dilutions of peptide (from 0.06 to 32 μg/mL) were performed in Mueller–Hinton broth (MHB) culture medium in sterile 96-well polypropylene microtiter plates inoculated with a final concentration of 5 × 10^5 CFU·mL^−1 of bacteria in each well. Bacteria were in the pre-exponential phase. Each determination was done by triplicate. In order to be considered acceptable, the three MIC results have to differ in only in one well, and the result was always given as the higher of the three. Drug-free and microorganism-free wells were used as positive and negative controls, respectively. Bacterial growth was visually determined on the basis of turbidity.

[4] = tested on: Escherichia coli ATTC 25922; format: cell-based
Experimental: as §2

[5] = tested on: Pseudomonas aeruginosa ATTC 27853; format: cell-based
Experimental: as §2

[6] = Kinetics of insertion into monolayers; format: binding, Salmonella enterica serotype Minnesota Re 595; details: initial pressure 32 mN·m^−1, peptide 0.48 μM, 25 min after injection, 10 mM Tris pH 7.4, 25 °C, average of three independent experiments (error < 10%)
Experimental: as §1

[7] = tested on: Staphylococcus aureus ATTC 25923; details: cited from earlier work
Experimental: C6 analogues are devoid of antibacterial effect both against Gram-positive and Gram-negative bacteria, with MICs higher than 32 μg·mL^−1. C8 analogues show some activity, especially against P. aeruginosa but not on Gram-positive S. aureus. […] For example, MIC of 4 μg·mL^−1 and 2 μg·mL^−1 against P. aeruginosa for spB-3 and spE-3 respectively are obtained, where ... || Since some of the polymyxin analogues also have good activities against S. aureus, the effects on the cell morphology of this Gram-positive bacteria were determined.

[8] = tested on: Pseudomonas aeruginosa ATTC 27853; details: cited from earlier work
Experimental: C6 analogues are devoid of antibacterial effect both against Gram-positive and Gram-negative bacteria, with MICs higher than 32 μg·mL^−1. C8 analogues show some activity, especially against P. aeruginosa but not on Gram-positive S. aureus. […] For example, MIC of 4 μg·mL^−1 and 2 μg·mL^−1 against P. aeruginosa for spB-3 and spE-3 respectively are obtained, where ... || Figure 3 Comparative TEM micrographs of P. aeruginosa (left) and E. coli (right). Untreated bacteria (a,b); bacteria treated with polymyxin analogues at 1xMIC: P. aeruginosa with spB-3 (4 μg·mL^−1) (c), or with of spE-10 (1 μg·mL^−1) (e); E. coli treated with spB-3 (2 μg·mL^−1) (d) or spE-10 (8 μg·mL^−1) (f). Lipopeptides cause the alteration of the membranes, with blebs protruding, loss of membrane, clear cytoplasmic zones, and even ghost cells. Similar results are obtained with natural PxB ((g,h), this last one is adapted from (Rabanal et al. Sci. Rep. 2015).

[9] = tested on: Escherichia coli ATTC 25922; details: cited from earlier work
Experimental: Table 1 Sequences and antimicrobial activities of the synthesized peptides determined as minimal inhibitory concentration (MIC) calculated for different bacteria strains. | column: MIC/µg mL^−1 (µM) / EC ^1 || Figure 3 Comparative TEM micrographs of P. aeruginosa (left) and E. coli (right). Untreated bacteria (a,b); bacteria treated with polymyxin analogues at 1xMIC: P. aeruginosa with spB-3 (4 μg·mL^−1) (c), or with of spE-10 (1 μg·mL^−1) (e); E. coli treated with spB-3 (2 μg·mL^−1) (d) or spE-10 (8 μg·mL^−1) (f). Lipopeptides cause the alteration of the membranes, with blebs protruding, loss of membrane, clear cytoplasmic zones, and even ghost cells. Similar results are obtained with natural PxB ((g,h), this last one is adapted from (Rabanal et al. Sci. Rep. 2015).

[10] = tested on: S. aureus; assay: Transmission electron microscopy of treated bacteria; format: cell-based, Staphylococcus aureus; details: 1xMIC, 120 min, tryptone water
Experimental: Then, 500 µL of this culture were added to 50 mL of tryptone water for a concentration of ≈10^8 bacteria·mL^−1. Aliquots of 10 mL were incubated with the lipopeptide at the desired concentration for 2 h at room temperature, and bacterial cells were collected by centrifugation (12,857 g, 20 min). Samples were fixed with 2.5% glutaraldehyde in phosphate buffer for 2 h at 4 °C, washed with the same buffer, and post fixed with 1% osmium tetroxide in buffer containing 0.8% potassium ferricyanide at 4 °C. Then, the samples were dehydrated for 1 h in acetone, infiltrated in a graded series of Epon resin (Ted pella, Inc., Redding, CA, USA) during 2 days, and finally embedded in fresh Epon resin and polymerized at 60 °C during 48 h. Ultrathin sections were obtained using a Leica Ultracut UCT ultramicrotome (Leica, Vienna, Austria) and mounted on Formvar-coated copper grids. Sections were stained with 2% aqueous uranyl acetate and lead citrate and examined in a JEM-1010 electron microscope (Jeol, Tokyo, Japan).

[11] = broth microdilution, MHB, 5 × 10^5 CFU/mL, overnight 37 °C, triplicate, higher of the three
[12] = value in brackets, broth microdilution, MHB, overnight 37 °C, triplicate
[13] = taken from the literature (analogues #37, #38, #39)
[14] = value in brackets, taken from the literature

Row | Compound | Increase in surface pressure (Δπ), POPE/POPG [2] [mN·m^−1] | Increase in surface pressure (Δπ), POPC [2] [mN·m^−1] | Increase in surface pressure (Δπ), POPG [2] [mN·m^−1] | MIC SA [3, 11] [µg/mL] | MIC EC [4, 11] [µg/mL] | MIC PA [5, 11] [µg/mL] | Increase in surface pressure (Δπ), LPS [6] [mN·m^−1] | MIC SA ([3]; ATTC 25923) [µM] | MIC EC ([4]; ATTC 25922) [µM] | MIC PA ([5]; ATTC 27853) [µM] | MIC SA [7, 13] [µg/mL] | MIC SA [7, 14] [µM] | MIC PA [8, 13] [µg/mL] | MIC PA [8, 14] [µM] | MIC EC [9, 13] [µg/mL] | MIC EC [9, 14] [µM] | also measured
1 | CC[C@H](C)CCCCC(=O)N[C@@H](CCN)C(=O)N[C@H](C(=O)N[C@@H](CCN)C(=O)N[C@H]1CCNC(=O)[C@H]([C@@H](C)O)NC(=O)[C@H](CCN)NC(=O)[C@H](CCN)NC(=O)[C@H](CC(C)C)NC(=O)[C@@H](Cc2ccccc2)NC(=O)[C@H](CCN)NC1=O)[C@@H](C)O [PxB, Polymyxin B, reference compound] (X1-[Dab]T[Dab][Dab][Dab][dF]L[Dab][Dab]T; lactam 4-C) | 7.2 | 1.4 | 5.9 | > 32 | 1 | 0.5 | 11.4 | – | – | – | – | – | – | – | – | – | hemolysis [1]: 18%; MIC SA [3, 12]: > 27 µM; MIC EC [4, 12]: 0.83 µM; MIC PA [5, 12]: 0.42 µM
2 | CCCCCC(=O)N[C@@H](CCN)C(=O)N[C@H](C(=O)N[C@@H](CCN)C(=O)N[C@H]1CSSC[C@H](C(N)=O)NC(=O)[C@H](CCN)NC(=O)[C@H](CCN)NC(=O)[C@H](CC(C)C)NC(=O)[C@@H](CC(C)C)NC(=O)[C@H](CCN)NC1=O)[C@@H](C)O [spE-1] (Hexanoyl-[Dab]T[Dab]C[Dab][dL]L[Dab][Dab][dC]-NH2; disulfide 4-10) | 4.1 | 0.3 | 2.8 | > 32 | > 32 | > 32 | 10.6 | > 28 | > 28 | > 28 | – | – | – | – | – | – | –
3 | Decanoyl-[Dab]T[Dab]C[Dab]F[Nle][Dab][Dab]C (disulfide 4-10 (inferred)) [spB-7, Series II-PxB analogue, decanoyl, Nle in position 7] | 6.5 | 2.1 | 4.2 | – | – | – | 9.3 | – | – | – | 4 | 3.2 | 1 | 0.81 | 2 | 1.6 | –
4 | Lauroyl-[Dab]T[Dab]C[Dab]F[Nle][Dab][Dab]C (disulfide 4-10 (inferred)) [spB-8, the C12/Nle7 derivative] | 6.2 | 1.7 | 3.8 | – | – | – | 11.2 | – | – | – | 2 | 1.58 | 1 | 0.79 | 4 | 3.2 | ultrastructural effect on S. aureus (TEM) [10]: Even more disruptive effects
5 | CCCCCCCCC(=O)N[C@@H](CCN)C(=O)N[C@H](C(=O)N[C@@H](CCN)C(=O)N[C@H]1CSSC[C@H](C(N)=O)NC(=O)[C@H](CCN)NC(=O)[C@H](CCN)NC(=O)[C@H](CCCC)NC(=O)[C@@H](Cc2ccccc2)NC(=O)[C@H](CCN)NC1=O)[C@@H](C)O [spB-6] (Nonanoyl-[Dab]T[Dab]C[Dab][dF][Nle][Dab][Dab][dC]-NH2; disulfide 4-10) | 5.0 | 0.4 | 6.0 | 16 | 2 | 1 | 10.8 | 13 | 1.6 | 0.82 | – | – | – | – | – | – | –
6 | CCCCCCCCCCCC(=O)N[C@@H](CCN)C(=O)N[C@H](C(=O)N[C@@H](CCN)C(=O)N[C@H]1CSSC[C@H](C(N)=O)NC(=O)[C@H](CCN)NC(=O)[C@H](CCN)NC(=O)[C@H](CC(C)C)NC(=O)[C@@H](Cc2ccccc2)NC(=O)[C@H](CCN)NC1=O)[C@@H](C)O [spB-4] (Lauroyl-[Dab]T[Dab]C[Dab][dF]L[Dab][Dab][dC]-NH2; disulfide 4-10) | 5.0 | 2.5 | 6.7 | 8 | 16 | 8 | 12.2 | 6.3 | 13 | 6.3 | – | – | – | – | – | – | –

From article PMC8708274, “Unveiling the Membrane and Cell Wall Action of Antimicrobial Cyclic Lipopeptides: Modulation of the Spectrum of Activity” (Pharmaceutics, 2021)
